What all share (type): in vivo, C57BL/6 mice
The subject of experiment [1] is TNF-α. Briefly: Example 1: inflammatory cytokine mRNA in large intestine by quantitative PCR (TNF-α). The settings on record: 9th day of DSS drinking, 5 mg/kg i.v. on 6th and 7th days, FIG. 3. From the text: (§1) Colitis was induced in C57BL/6 mice (8 to 10-week-old, male, body weight about 20 g) by allowing them to freely drink the 3% DSS aqueous solution in place of purified water (RO water) (drinking of the DSS aqueous solution was continued until the removal of the large intestine). Mice that were allowed to freely drink purified water (RO water) (hereinafter, referred to as “normal mice”) were used as comparative subjects.
(§2) The IBD model mice produced as described above were divided into the HMGB1 peptide (1-44) administration group (n=3) and the control group (n=3). […] Hereinafter, “the Xth day after the start of drinking the DSS aqueous solution” is expressed as an abbreviation “the Xth day of DSS drinking”.
(§3) The body weight of the mice was measured daily from the start of drinking the DSS aqueous solution until the removal of the large intestine. On the 9th day of DSS drinking, the large intestine was excised from the mice, and the length of the large intestine was measured. mRNA was extracted from the terminal part near the anus in the excised large intestine, and the expression level of inflammatory cytokines (TNF-α, IL-1β, and IL-6) was analyzed by quantitative PCR.

For experiment [2], the system named is IL-1β. In words: Example 1: inflammatory cytokine mRNA in large intestine by quantitative PCR (IL-1β). The following applies: 9th day of DSS drinking, 5 mg/kg i.v. on 6th and 7th days, FIG. 3.
From the text: as §1, §2, §3

Experiment [3] relates to IBD model mice (DSS-induced enteritis). Briefly: DSS-induced colitis (IBD) model mice, Example 2: intravenous peptide on 1st, 3rd, 5th and 7th days; body weight, large intestine length, HE staining. The settings on record: 10th day of DSS drinking, 5 mg/kg i.v. on 1st. On the procedure: as §1
(§4) The DSS aqueous solution and the HMGB1 peptide (1-44) were prepared and the inflammatory bowel disease model mice were produced in the same way as Example 1.
The IBD model mice produced as described in Example 1 were divided into the HMGB1 peptide (1-44) administration group (n=3) and the control group (n=3). The test substance was administered by injecting an HMGB1 peptide (1-44) solution, which has been adjusted to a concentration of 0.5 mg/ml with saline as the vehicle, into the vein at a dose of 200 μl/animal (5 mg/kg as the peptide dose) on the 1st, 3rd, 5th, and 7th days of DSS drinking. In the control group, saline was injected into the vein at a dose of 200 μl/animal on the 1st, 3rd, 5th, and 7th days of DSS drinking. No substance was administered to the normal mice (n=3).
The body weight of the mice was measured daily from the start of drinking the DSS aqueous solution until the removal of the large intestine. On the 10th day of DSS drinking, the large intestine was excised from the mice, and the length of the large intestine was measured. Tissue sections of the cross-section of the intestinal tract were produced using the terminal part near the anus of the excised large intestine, and hematoxylin-eosin (HE) staining was performed.

In experiment [4] the test system is IL-6. Briefly: Example 1: inflammatory cytokine mRNA in large intestine by quantitative PCR (IL-6). The settings on record: 9th day of DSS drinking, 5 mg/kg i.v. on 6th and 7th days, FIG. 3.
From the text: as §1, §2, §3

Experiment [5] has as its system IBD model mice (DSS-induced enteritis). In words: DSS-induced colitis (IBD) model mice, Example 1: intravenous peptide on 6th and 7th days; body weight and large intestine length. The following applies: 9th day of DSS drinking, 5 mg/kg i.v. on 6th and 7th days, n=3. On the procedure: Dextran sulfate sodium (DSS) (molecular weight 5,000 to 6,000, manufactured by Nacalai Tesque, catalog No. 10930-94) was dissolved in water to prepare a 3% (w/v) DSS aqueous solution. A peptide consisting of amino acid residues 1-44 of the human-derived HMGB1 protein (SEQ ID NO: 1) was chemically synthesized by a solid-phase method. Hereinafter, the HMGB1 fragment peptide is referred to as the HMGB1 peptide (1-44) and is expressed as an abbreviation “1-44” in the drawings corresponding to the Examples. […]
as §2, §3

Experiment [6] has the same test system. In words: DSS-induced colitis (IBD) model mice, Example 3: peptide-containing hydrogel embedded on the back; body weight, large intestine length. The following applies: 10th day of DSS drinking, MedGel PI5 hydrogel with 20 μl of 5 μg/μl peptide embedded on the back one day before DSS, n=3. The method, then: as §1, §4
A bioabsorbable hydrogel (MedGel (registered trademark) PI5, manufactured by MedGEL CO., LTD) cut into a size of about 5 mm×5 mm was soaked with 20 μl of an HMGB1 peptide (1-44) solution, which has been adjusted to a concentration of 5 μg/μl with saline as the vehicle, by dripping and allowed to stand under ice-cooling for 30 minutes. The resulting hydrogel was used for embedding in the mice of the HMGB1 peptide (1-44) administration group. […]
The body weight of the mice was measured daily from the start of drinking the DSS aqueous solution until the removal of the large intestine. On the 10th day of DSS drinking, the large intestine was excised from the mice, and the length of the large intestine was measured.

The record followed here is patent US11298403B2, “Therapeutic agent for inflammatory bowel disease” (StemRIM Inc., priority 2017, dated 2022).

“HMGB1 peptide (1-44): peptide consisting of amino acid residues 1-44 of the human-derived HMGB1 protein (SEQ ID NO: 1), chemically synthesized by a solid-phase method (MGKGDPKKPRGKMSSYAFFVQTCREEHKKKHPDASVNFSEFSKK)”: in experiment [1], the “expression level of TNF-α in the large intestine vs control group” value is listed as “significantly lower than that of the control group”. Further, in experiment [2], the “expression level of IL-1β in the large intestine vs control group” value is given as “significantly lower than that of the control group”. Further, in experiment [3] (FIG. 6), the “mucosal tissue damage of the large intestine (HE staining)” value is “damage of the mucosal tissue was suppressed”. The “body weight vs control group” value is “significantly higher than that of the control group” in experiment [3] (n=3, FIG. 4); “significantly higher than that of the control group” in experiment [5] (FIG. 1); “higher than that of the control group” in experiment [6] (FIG. 7). For the same substance, the “length of the large intestine vs control group” value in experiment [3] (n=3, FIG. 5) is on record as “significantly longer than that of the control group”; in experiment [5] (FIG. 2), “significantly longer than that of the control group”; in experiment [6] (FIG. 8), “longer than that of the control group”. The “expression level of IL-6 in the large intestine vs control group” value in experiment [4] is “significantly lower than that of the control group”.
